Literature values, collected in publication PMC10800023 (Human Molecular Genetics, 2023).

Conditions: cited from earlier work

In the case of `C[C@@H]1C[C@H]2[C@@H]3CCC4=CC(=O)C=C[C@]4(C)C3=CC[C@]2(C)[C@@]1(O)C(=O)CO` [Vamorolone], the “reduction of serum osteocalcin levels” value (Phase 2A, subjects with DMD, 6 mg/kg/day, 14 days of dosing) is listed as ~ 33% and the “reduction of osteocalcin levels” value (Phase 2b 24-week study in DMD boys, 6 mg/kg) is listed as 0.17%.
